BindingDB's records for doi:10.1016/j.bmcl.2009.03.008 (Roche R & D Center(China), 2009)

Target: T1, Bile acid receptor (Homo sapiens, UniProt Q96RI1)
T1 sequence (Q96RI1 whole entry): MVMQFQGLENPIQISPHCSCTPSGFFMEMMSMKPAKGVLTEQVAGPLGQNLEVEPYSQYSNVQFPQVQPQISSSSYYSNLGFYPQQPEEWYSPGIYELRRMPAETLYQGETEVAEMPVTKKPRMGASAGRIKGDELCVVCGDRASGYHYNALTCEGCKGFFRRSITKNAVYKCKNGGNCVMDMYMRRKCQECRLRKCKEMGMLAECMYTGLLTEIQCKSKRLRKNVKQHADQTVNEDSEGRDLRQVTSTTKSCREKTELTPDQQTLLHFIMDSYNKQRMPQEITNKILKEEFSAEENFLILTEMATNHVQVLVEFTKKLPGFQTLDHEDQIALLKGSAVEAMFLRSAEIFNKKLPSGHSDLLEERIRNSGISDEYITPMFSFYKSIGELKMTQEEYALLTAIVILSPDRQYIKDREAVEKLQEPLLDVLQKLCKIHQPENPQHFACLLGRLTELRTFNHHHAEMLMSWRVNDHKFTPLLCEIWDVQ
Assay: Scintillation Proximity Assay
Conditions: pH 8; 22 °C
Method: Binding affinity (IC50) was evaluated using scintillation proximity assay with radiolabeled ligand and biotinylated receptor. Because the scintillant is contained within the SPA bead, only radiolabel that is attached to the bead is detected. The receptor-ligand complex is bound to the bead through interaction between the biotinylated receptor and the streptavidin moiety located on the surface of the bead.

Question: Which IC50 does the source give for Cc1cc(OCc2c(-c3c(Cl)cn(C)c(=O)c3Cl)noc2C(C)Cl)ccc1-c1ccc2c(C(=O)O)cn(C)c2c1 (centres undefined) [3-aryl isoxazole analog, 7e] here?
Answer: Its IC50 is 4170 nM.

Question: For Cc1cc(OCc2c(-c3c(Cl)c[n+]([O-])cc3Cl)noc2C(C)Cl)ccc1-c1ccc2c(C(=O)O)cn(C)c2c1 (centres undefined) [3-aryl isoxazole analog, 7b], which IC50 is on record?
Answer: The IC50 was 45 nM.

Question: What does the source list for COc1ccc(Cl)c(-c2noc(C(C)Cl)c2COc2ccc(-c3ccc4c(C(=O)O)cn(C)c4c3)c(C)c2)n1 (centres undefined) [3-aryl isoxazole analog, 7g]?
Answer: EC50: 2000 nM; IC50: 750 nM

Question: With Cc1cc(OCc2c(-c3c(Cl)ccc(=O)n3C)noc2C(C)Cl)ccc1-c1ccc2c(C(=O)O)cn(C)c2c1 (centres undefined) [3-aryl isoxazole analog, 7f] as the molecule, how does the IC50 read?
Answer: Its IC50 is 880 nM.

Question: Which IC50 does the source give for Cc1cc(OCc2c(-c3cc[nH]c(=O)c3Cl)noc2C(C)Cl)ccc1-c1ccc2c(C(=O)O)cn(C)c2c1 (centres undefined) [3-aryl isoxazole analog, 7c] here?
Answer: The IC50 was 1100 nM.

Question: For Cc1cc(OCc2c(-c3ccn(C)c(=O)c3Cl)noc2C(C)Cl)ccc1-c1ccc2c(C(=O)O)cn(C)c2c1 (centres undefined) [3-aryl isoxazole analog, 7d], which EC50 is on record?
Answer: The EC50 was 7000 nM.

Question: What about the IC50 of the same molecule?
Answer: The IC50 was 7330 nM.

Question: Cc1cc(OCc2c(-c3[nH]c(=O)ccc3Cl)noc2C(C)Cl)ccc1-c1ccc2c(C(=O)O)cn(C)c2c1 (centres undefined) [3-aryl isoxazole analog, 7h] was tested. Which IC50 did it give?
Answer: Its IC50 is 5160 nM.
